From article PMC3222276 (ACS chemical biology, 2010) come the findings set out here.

The target in one assay is cathepsin B (Homo sapiens, UniProt P07858). Description: Inhibition of recombinant cathepsin B. The following applies: read-out: Cathepsin B IC50; enzyme 360nM, substrate 50μM, pH 6.25, 30min.
The target of another assay is cathepsin L (Homo sapiens, UniProt P07711). Description: Inhibition of recombinant cathepsin L. The following applies: read-out: Cathepsin L IC50; enzyme 100nM, substrate 10μM, pH 6.25, 30min.
Chain of cathepsin L (P07711 114-333, species assumed): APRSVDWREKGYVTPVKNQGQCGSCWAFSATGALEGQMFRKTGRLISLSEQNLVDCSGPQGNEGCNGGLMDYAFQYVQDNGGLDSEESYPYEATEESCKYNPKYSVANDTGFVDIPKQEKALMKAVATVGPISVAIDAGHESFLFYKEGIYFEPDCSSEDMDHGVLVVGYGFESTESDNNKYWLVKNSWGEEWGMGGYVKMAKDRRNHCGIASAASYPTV

With JPM-OEt, the values for the concentration for half-maximal inhibition (IC50) at cathepsin B and on cathepsin L were 0.78 µM and 2.98 µM, respectively.
